The values that follow come from patent US11584727B2, “2-thioxothiazolidin-4-one derivatives active as transthyretin ligands and uses thereof” (BSIM Therapeutics, S.A., priority 2014, dated 2023).

Read-outs that look alike come from different tables or passages of the source.

The target of series [1] is T1, wild type transthyretin (WT-TTR) (Homo sapiens, UniProt P02766).
T1 construct: made in house; host or cells: E. coli BL21 (DE3), pET23a plasmid
Briefly: WT-TTR amyloid fibril formation assay (turbidimetry, acid-induced). Conditions: pH 4.4, 72 hours; for Fibril Formation (%): WT-TTR 3.6 μM, 1:1 TTR-compound stoichiometry, 37° C., normalized to no-compound control (100%); for IC50: WT-TTR fixed at 3.6 μM, ten compound concentrations; for inhibitory activity against TTR amyloid fibril formation compared with reference compounds (in words): TTR 3.6 μM. It counts as biochemical. As to the method: (§1) The first set of evaluations is based on a fast, stagnant fibril formation assay that is used for the early screening of compounds, be they virtual screening hits or newly synthesized analogues. In this assay, a solution of the compound under test at 1.8, 3.6 or 7.2 μM is added to a solution of TTR at 3.6 μM, so that there is enough compound to bind to either one or both of TTR's binding sites. The pH of the resulting solution is then lowered to 4.4 to promote amyloidogenesis. The process of amyloid fibril formation over time is assessed by turbidimetry measurements at three different wavelengths (405, 450 and 490 nm, or at 550, 600 and 650 nm when the compound absorbs light at the previous wavelengths), using a spectrophotometer endowed with a BioTek microplate reader. The extent of fibril formation of each mixture is determined by normalizing a sample with the protein (TTR), in absence of compounds, which, at the end of 72 hours, represents 100% of amyloid fibril formation. In each experiment, each compound concentration is tested in triplicate. For each compound concentration and incubation time, the arithmetic mean of the triplicate experiments is calculated, as well as the arithmetic mean of the three measured wavelengths. High activity can be defined as a percentage of fibril formation below 10% at compound concentration 7.2 μM (TTR:compound stoichiometry 1:2) and below 40% at 3.6 μM (TTR:compound stoichiometry 1:1).
The in vitro activity of the compounds was assessed through a biochemical assay based on turbidimetry measurements, in which fibril formation is induced by acidification of the solution to pH 4.4 after incubation with the hit compound to be tested. The amount of amyloid fibrils formed is then monitored throughout 72 hours. Further details on this assay are provided in the “Evaluation of amyloid inhibition in vitro” subsection in “Materials and Methods”.
Experimental evaluation of the in vitro activity of virtual screening hits against amyloid fibril formation by TTR was carried out using a biochemical assay based on turbidimetry measurements. In this assay, fibril formation is induced by acidification of the solution to pH 4.4 after incubation with the hit compound to be tested. The amount of amyloid fibrils formed is monitored over 72 hours. Further details on the assay are provided in the “Evaluation of amyloid inhibition in vitro” subsection below.
(§2) Purchased virtual screening hits and all synthesized (optimization) derivatives were dissolved in DMSO to a final concentration of 10.8 mM to provide a primary stock solution. Several secondary stock solutions were prepared in DMSO by dilution of the primary stock solution and the concentrations were chosen depending on the effectiveness of the compound in inhibiting the TTR amyloid fibril formation.
(§3) The fibril formation assay was adapted to run in a high-throughput screening mode. For this purpose, 96-well microplates were used with a final assay volume of 100 μL.
(§4) One microLitre (μL) of different compound secondary stock solutions was added to 50 μL of a 7.2 μM wild type TTR (WT-TTR) or Val122Ile-TTR (V122I-TTR) solutions in 10 miliMolar (mM) sodium phosphate buffer, 100 mM KCl and 1 mM EDTA, pH 7.2, previously dialyzed against the same buffer solution. After 30 minutes of incubation at room temperature, the pH of the mixture was lowered to 4.4 with 49 μL of 200 mM acetate buffer, 100 mM KCl and 1 mM EDTA, pH 4.3.
The mixtures were incubated at 37° C. during 72 hours. Turbidity at 405 nm, 450 nm and 490 nm (or at 550, 600 and 650 nm when the test compound absorbs light at the previous wavelengths) was measured over time (0, 17, 24, 41, 48, 65 and 72 hours) using a BioTek Microplate Spectrophotometer to evaluate the extent of fibril formation. Immediately before the turbidity measurements, the mixtures were gently shacked during 1 minute to homogenize well and not damage the formed amyloid aggregates and fibrils.

Series [2] deals with Val122Ile transthyretin (V122I-TTR) (Homo sapiens, UniProt P02766, V142I). As to the kind of experiment: V122I-TTR amyloid fibril formation assay (turbidimetry, acid-induced). It counts as biochemical. The following applies: pH 4.4, 72 hours; for Fibril Formation (%): V122I-TTR 3.6 μM, 37° C.; for IC50: V122I-TTR fixed at 3.6 μM, ten compound concentrations. As for the experimental part:
as §1, §2, §3, §4
The mixtures were incubated at 37° C. during 72 hours. Turbidity at 405 nm, 450 nm and 490 nm (or at 550, 600 and 650 nm when the test compound absorbs light at the previous wavelengths) was measured over time (0, 17, 24, 41, 48, 65 and 72 hours) using a BioTek Microplate Spectrophotometer to evaluate the extent of fibril formation. Immediately before the turbidity measurements, the mixtures were gently shacked during 1 minute to homogenize well and not damage the formed amyloid aggregates and fibrils. The final turbidity was calculated as an average of the three wavelengths measured.
In addition, control samples containing TTR with no inhibitor and 1% DMSO, as well as inhibitor in absence of TTR were tested and analyzed.
The extent of amyloid fibril formation data was normalized to TTR in the absence of inhibitor, assigned to be 100% fibril formation (or 0% amyloid inhibition) at the end of the experiment.
The extent of amyloid fibril formation throughout 72 hours was determined as described in the “Evaluation of amyloid inhibition in vitro” subsection above.
IC50 values were calculated from the inhibition curves obtained by fitting the values by a nonlinear curve method using the OriginPro7 (OriginLab Corporation, USA).

The mark [3] stands for this setting: read-out: IC50 (μM), concentration inhibiting WT-TTR amyloid fibril formation by 50%.

Regarding `NC(Cc1cc(I)c(Oc2cc(I)c(O)c(I)c2)c(I)c1)C(=O)O` (stereo in doubt) [Thyroxine, (2S)-2-amino-3-[4-(4-hydroxy-3,5-diiodophenoxy)-3,5-diiodophenyl]propanoic acid, reference compound], the “Fibril Formation (%)” value in series [1] stood at 28%; in series [2], 42%.

Take `Oc1c(Cl)cc(-c2cc(Cl)c(O)c(Cl)c2)cc1Cl` [2OH- PCB80, 2,6-dichloro-4-(3,5-dichloro-4-oxidophenyl)benzen-1-olate, reference compound]: the “Fibril Formation (%)” value is reported as 20% in series [1] and 24% in series [2]. The IC50 in series [1] (setting [3]) was 1.59 ± 0.27 µM; in series [2], 1.45 µM.

With `COc1cc(/C=C2/SC(=S)N(CC(=O)O)C2=O)cc(Cl)c1O` [AT50-A00 (E), (E)-3-hydroxycarbonylmethyl-5-(3′-chloro-4′-hydroxy-5′-methoxyphenylmethylidene)-2-thioxothiazolidin-4-one], the “Fibril Formation (%)” value is 26% in series [1] and 45% in series [2]. The IC50 in series [1] amounted to 1.73 ± 0.06 µM; in series [2] it was 3.06 µM.

The melting point is the temperature of the solid-liquid transition. As to `O=C(O)CN1C(=O)/C(=C/c2ccc(O)cc2)SC1=S` [AT50-A11, (Z)-3-hydroxycarbonylmethyl-5-(4′-hydroxyphenylmethylidene)-2-thioxothiazolidin-4-one], the melting point was in the range of 213 to 214 °C. The “Fibril Formation (%)” value in series [1] is given as 35%.

On to `Cc1cc(/C=C2\SC(=S)N(CC(=O)O)C2=O)cc(O)c1O` [AT50-A35, (Z)-5-(3′,4′-dihydroxy-5′-methylphenylmethylidene)-3-hydroxycarbonylmethyl-2-thioxothiazolidin-4-one], for which the melting point is 238 to 239 °C. In addition, in series [1], the “Fibril Formation (%)” value is recorded as 21% and the IC50 came out at 2.23 µM.

As for `COc1cc(/C=C2\SC(=S)N(CC(=O)O)C2=O)cc(C)c1O` [AT50-A47, (Z)-3-hydroxycarbonylmethyl-5-(4′-hydroxy-3′-methoxy-5′-methylphenylmethylidene)-2-thioxothiazolidin-4-one], the melting point lay in the range of 238 to 239 °C. Moreover, in series [1], the “Fibril Formation (%)” value is 21% and the IC50 was found to be 2.05 µM.

For `O=C(O)CN1C(=O)/C(=C/c2cc(Br)c(O)c(Br)c2)SC1=S` [AT50-A50, (Z)-5-(3′,5′-dibromo-4′-hydroxyphenylmethylidene)-3-hydroxycarbonylmethyl-2-thioxothiazolidin-4-one], in series [1], the “Fibril Formation (%)” value is 8% and the IC50 was determined as 0.9 µM.

For the compound `COc1cccc(/C=C2\SC(=S)N(C(C)C(=O)O)C2=O)c1` (stereo not shown) [AT50-B00, (Z)-3-(1′-hydroxycarbonylethyl)-5-(3′-methoxyphenylmethylidene)-2-thioxothiazolidin-4-one], in series [1], the “inhibitory activity against TTR amyloid fibril formation compared with reference compounds (in words)” value is given as “superior to that of reference compounds Tafamidis”, the “Fibril Formation (%)” value amounted to 35% and the IC50 stood at 2.38 ± 0.17 µM.

As to `COc1cc(/C=C2\SC(=S)N([C@H](CC(C)C)C(=O)O)C2=O)cc(OC)c1O` [AT50-B01, (Z)-(1′S)-5-(4′-hydroxy-3′,5′-dimethoxyphenylmethylidene)-3-(1′-hydroxycarbonylisopentyl)-2-thioxothiazolidin-4-one], in series [1], the “Fibril Formation (%)” value came out at 10% and the IC50 worked out at 0.95 ± 0.45 µM. Further, in series [2], the “Fibril Formation (%)” value amounted to 20% and the IC50 was found to be 1.48 µM.

As for `O=C(O)CC[C@@H](C(=O)O)N1C(=O)/C(=C/c2c(Cl)cccc2Cl)SC1=S` [AT50-C00, (Z)-(1′S)-5-(2′,6′-dichlorophenylmethylidene)-3-(1′,3′-di(hydroxycarbonyl)propyl)-2-thioxothiazolidin-4-one], in series [1], the “inhibitory activity against TTR amyloid fibril formation compared with reference compounds (in words)” value was “superior to that of reference compounds Tafamidis”, the “Fibril Formation (%)” value is recorded as 26% and the IC50 came out at 2.05 ± 0.04 µM.

As to `O=C(O)CC[C@@H](C(=O)O)N1C(=O)/C(=C/c2ccc(O)c(Br)c2)SC1=S` [AT50-C01, (Z)-(1′S)-5-(3′-bromo-4′-hydroxyphenylmethylidene)-3-(1′,3′-di(hydroxycarbonyl)propyl)-2-thioxothiazolidin-4-one], in series [1], the “Fibril Formation (%)” value is on record as 13% and the IC50 was 1.38 ± 0.3 µM. Moreover, in series [2], the “Fibril Formation (%)” value is reported as 39% and the IC50 was determined as 2.66 µM.

Consider `Cc1cc(/C=C2\SC(=S)N([C@@H](CCC(=O)O)C(=O)O)C2=O)cc(Cl)c1O` [AT50-C02, (Z)-(1′S)-5-(3′-chloro-4′-hydroxy-5′-methylphenylmethylidene)-3-(1′,3′-di(hydroxycarbonyl)propyl)-2-thioxothiazolidin-4-one], for which, in series [1], the “Fibril Formation (%)” value worked out at 18% and the IC50 stood at 1.79 ± 0.13 µM.

For `COc1cc(/C=C2\SC(=S)N(CCC(=O)O)C2=O)cc(C)c1O` [AT50-C18, (Z)-5-(4′-hydroxy-3′-methoxy-5′-methylphenylmethylidene)-3-(2′-hydroxycarbonylethyl)-2-thioxothiazolidin-4-one], the melting point was in the range of 194 to 196 °C. In series [1], the “Fibril Formation (%)” value stood at 30%.

In turn, `O=C(O)CCN1C(=O)/C(=C/c2cc(O)c(O)c(Cl)c2)SC1=S` [AT50-C19, (Z)-5-(3′-chloro-4′,5′-dihydroxyphenylmethylidene)-3-(2′-hydroxycarbonylethyl)-2-thioxothiazolidin-4-one] returned a melting point of 243 to 245 °C. The “Fibril Formation (%)” value in series [1] was 33%.

Take “(Z)-5-(3′,5′-dichloro-4′-hydroxyphenylmethylidene)-3-hydroxycarbonylmethyl-2,4-dioxothiazolidine [AT50-A49]”: the “Fibril Formation (%)” value in series [1] is listed as 4%; in series [2], 12%. In addition, the IC50 stood at 0.89 ± 0.15 µM in series [1] (setting [3]) and 1.32 µM in series [2] (read-out: IC50 (μM), concentration inhibiting V122I-TTR amyloid fibril formation by 50%).

“(Z)-5-(3′-bromo-4′-hydroxy-5′-iodophenylmethylidene)-3-hydroxycarbonylmethyl-2,4-dioxothiazolidine [AT50-A51]”: the “Fibril Formation (%)” value in series [1] is 5%. Further, the IC50 in series [1] (setting [3]) stood at 1.07 ± 0.42 µM.
